In data set [1] the test system is motoneurones of isolated newborn rat spinal cord (NMDA type receptor). Nature of the data set: depolarizing activity test, isolated newborn rat spinal cord (potential changes in motoneurones recorded from ventral root). As to conditions: for minimal effective concentration: read-out: Minimum effective concentration; for activity in the presence of 2-APV or Mg++: measured in the presence of 2APV or Mg++; for depolarizing activity, times as potent as L-glutamic acid: rat spinal cord, relative to L-glutamic acid; for Minimum effective concentration, relative activity: relative to L-Glu = 1; for type of activity: spinal cord of a rat. As to the method: The methods used for the electrophysiological experiment in the isolated newborn rat spiral cord were essentially similar to those described by Ohtsuka et al. (Nature, 252, 733-734, 1974). The potential changes generated in the motoneurones induced by L-glutamate analogues, namely, (2R,3S,4S)-α-(carboxycyclopropyl)glycine (1) of this invention and one of the stereoisomers, (2S,3R,4S)-α-(carboxycyclopropyl)-glycine (2) were recorded extracellularly from the ventral root with a suction electrode.

For data set [2] the following is noted: Fowden et al., Phytochemistry, 8, 437, 1969; cited from earlier work.
The test system of data set [3] is motoneurones of isolated newborn rat spinal cord (NMDA type receptor). As to conditions: newborn rat spinal cord preparation; from Japanese Patent Application No. 129626/88; cited from earlier work.
The mark [4] stands for this setting: isolated newborn rat spinal cord, depolarization recorded extracellularly from ventral root.

Read-outs that look alike come from different tables or passages of the source.

Consider `N[C@@H](C(=O)O)[C@H]1C[C@@H]1C(=O)O` [Compound (1), (2R,3S,4S)-α-(carboxycyclopropyl)glycine], for which, in data set [1] (setting [4]), the minimal effective concentration was 0.3 µM. In addition, in data set [1], the “activity in the presence of 2-APV or Mg++” value was “activity disappears”; the “depolarizing activity, times as potent as L-glutamic acid” value worked out at 300 times; the “Minimum effective concentration, relative activity” value was found to be 300; the type of activity entry was “N-methyl-D-aspartic acid (NMDA) like activity”. Moreover, the “depolarizing activity, times as potent as L-glutamic acid” value in data set [1] (listed as (2R,3S,4S)-α-(carboxycyclopropyl)glycine) is recorded as “more than 300 times”. The “depolarizing activity compared with NMDA” value in data set [1] (relative to NMDA) is “much more potent than NMDA”. For the same compound, the “depolarizing activity, times as potent as compound (2)” value in data set [1] (relative to compound (2)) is on record as 3 times.
In the case of `N[C@H](C(=O)O)[C@H]1C[C@H]1C(=O)O` [(2S,3S,4R)-α-(carboxycyclopropyl)glycine], in data set [2], the effects caused entry was “hypoglycemia and amesis”.
With `N[C@H](C(=O)O)[C@@H]1C[C@@H]1C(=O)O` [(2), (2S,3R,4S)-α-(carboxycyclopropyl)glycine], in data set [1] (setting [4]), the minimal effective concentration came out at 1 µM. Further, in data set [1], the “activity in the presence of 2-APV or Mg++” value is listed as “activity disappeared”; the “Minimum effective concentration, relative activity” value was found to be 100; the type of activity entry is “potent NMDA-type depolarization”. Moreover, the “depolarizing activity, times more potent than L-glutamate” value in data set [3] is on record as “about 100 times”.
For the compound `N[C@H](C(=O)O)[C@H]1C[C@@H]1C(=O)O` [(2S,3S,4S)-α-(carboxycyclopropyl)glycine], the effects caused result in data set [2] is “hypoglycemia and amesis”.
Take `N[C@@H](CCC(=O)O)C(=O)O` [L-Glu, L-glutamic acid]: the minimal effective concentration in data set [1] (Rattus norvegicus) amounted to 100 µM. Also, in data set [1], the “Minimum effective concentration, relative activity” value is recorded as 1.

The record behind these values is US5068412A, “(2R,3S,4S)-α-(carboxycyclopropyl)glycine” (Suntory Limited, priority 1988, dated 1991).
